target: T1, human PTH1 receptor (Homo sapiens, UniProt Q03431); experiment: In vitro cAMP signal activity in HKRK-B7 cells (LLC-PK1 cells overexpressing the human PTH1 receptor); type: cell-based; details: HKRK-B7 cells; compound at 1×10^−3 M; cAMP produced as percentage of that produced by hPTH(1-34) at 100 nM
T1 sequence (Q03431 27-593): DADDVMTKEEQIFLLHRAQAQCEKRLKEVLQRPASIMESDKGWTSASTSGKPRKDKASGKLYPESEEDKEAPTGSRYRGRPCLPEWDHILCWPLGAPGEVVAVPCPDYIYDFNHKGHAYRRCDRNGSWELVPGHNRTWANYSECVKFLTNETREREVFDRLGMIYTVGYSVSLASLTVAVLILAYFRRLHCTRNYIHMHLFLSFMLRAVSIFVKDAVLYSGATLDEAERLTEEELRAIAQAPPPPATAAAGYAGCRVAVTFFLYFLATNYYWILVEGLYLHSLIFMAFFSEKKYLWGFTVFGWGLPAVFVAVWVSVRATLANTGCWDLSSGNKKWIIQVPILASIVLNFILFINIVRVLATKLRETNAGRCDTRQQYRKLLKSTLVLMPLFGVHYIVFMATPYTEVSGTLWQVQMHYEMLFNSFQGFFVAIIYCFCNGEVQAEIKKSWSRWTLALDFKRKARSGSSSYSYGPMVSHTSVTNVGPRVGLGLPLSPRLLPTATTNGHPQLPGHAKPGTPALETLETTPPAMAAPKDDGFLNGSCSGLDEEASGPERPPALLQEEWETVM

Point of comparison: `Cc1cc(OC[C@H](O)CO)ccc1CCS(=O)(=O)N1CCC2(CC1)N=C(c1cccc(OC(F)(F)F)c1)NC2=O` [Compound 325, 8-{2-[4-((R)-2,3-Dihydroxy-propoxy)-2-methyl-phenyl]-ethanesulfonyl}-2-(3-trifluoromethoxy-phenyl)-1,3,8-triaza-spiro[4.5]dec-1-en-4-one], “cAMP production activity (%)” value 61%. Against it:
- O=C1NC(C2CCC(C(F)(F)F)CC2)=NC12CCN(S(=O)(=O)CCc1cccc3c1ccn3C[C@H](O)CO)CC2 (stereo partly drawn) [Compound 322, 8-{2-[1-((S)-2,3-dihydroxy-propyl)-1H-indol-4-yl]-ethanesulfonyl}-2-(4-trifluoromethyl-cyclohexyl)-1,3,8-triaza-spiro[4.5]dec-1-en-4-one] — higher, 75%
- O=C1NC(C2CCCCC2)=NC12CCN(S(=O)(=O)CCc1ccccc1C(F)(F)F)CC2 [Compound 323, 2-Cyclohexyl-8-[2-(2-trifluoromethyl-phenyl)-ethanesulfonyl]-1,3,8-triaza-spiro[4.5]dec-1-en-4-one] — lower, 53%
- CN(C)C(=O)c1ccc(CCCS(=O)(=O)N2CCC3(CC2)N=C(C2CCCCC2)NC3=O)cc1 [Compound 324, 4-[3-(2-cyclohexyl-4-oxo-1,3,8-triaza-spiro[4.5]dec-1-ene-8-sulfonyl)-propyl]-N,N-dimethyl-benzamide] — lower, 30%
- CC(=O)N(CCO)c1ccc(C)c(CCS(=O)(=O)N2CCC3(CC2)N=C(c2cccc(OC(F)(F)F)c2)NC3=O)c1 [Compound 326, N-(2-Hydroxy-ethyl)-N-(4-methyl-3-{2-[4-oxo-2-(3-trifluoromethoxy-phenyl)-1,3,8-triaza-spiro[4.5]dec-1-ene-8-sulfonyl]-ethyl}-phenyl)-acetamide] — higher, 76%
- CC(=O)N(CCO)c1cccc(CCS(=O)(=O)N2CCC3(CC2)N=C(c2cccc(OC(F)(F)F)c2)NC3=O)c1C [Compound 327, N-(2-Hydroxy-ethyl)-N-(2-methyl-3-{2-[4-oxo-2-(3-trifluoromethoxy-phenyl)-1,3,8-triaza-spiro[4.5]dec-1-ene-8-sulfonyl]-ethyl}-phenyl)-acetamide] — higher, 84%
- Nc1cccc(CCCS(=O)(=O)N2CCC3(CC2)N=C(C2CCCCC2)NC3=O)c1 [Compound 328, 8-[3-(3-Amino-phenyl)-propane-1-sulfonyl]-2-cyclohexyl-1,3,8-triaza-spiro[4.5]dec-1-en-4-one] — lower, 41%
- CN(C)C(=O)c1ccc(-c2ccc(S(=O)(=O)N3CCC4(CC3)N=C(c3cccc(C(F)(F)F)c3)NC4=O)s2)cc1 [Compound 329, N,N-Dimethyl-4-{5-[4-oxo-2-(3-trifluoromethyl-phenyl)-1,3,8-triaza-spiro[4.5]dec-1-ene-8-sulfonyl]-thiophen-2-yl}-benzamide] — lower, 33%
- CN(C)C(=O)c1cccc(-c2ccc(S(=O)(=O)N3CCC4(CC3)N=C(c3cccc(C(F)(F)F)c3)NC4=O)s2)c1 [Compound 330, N,N-dimethyl-3-{5-[4-oxo-2-(3-trifluoromethyl-phenyl)-1,3,8-triaza-spiro[4.5]dec-1-ene-8-sulfonyl]-thiophen-2-yl}-benzamide] — lower, 23%
- Cc1cc(C(=O)N(C)C)ccc1-c1ccc(S(=O)(=O)N2CCC3(CC2)N=C(c2cccc(C(F)(F)F)c2)NC3=O)s1 [Compound 331, 3,N,N-trimethyl-4-{5-[4-oxo-2-(3-trifluoromethyl-phenyl)-1,3,8-triaza-spiro[4.5]dec-1-ene-8-sulfonyl]-thiophen-2-yl}-benzamide] — lower, 55%
- CC(=O)Nc1ccc(-c2ccc(S(=O)(=O)N3CCC4(CC3)N=C(C3CCCCC3)NC4=O)s2)c(C)c1 [Compound 332, N-{4-[5-(2-cyclohexyl-4-oxo-1,3,8-triaza-spiro[4.5]dec-1-ene-8-sulfonyl)-thiophen-2-yl]-3-methyl-phenyl}-acetamide] — higher, 90%
- Cc1cc(C(=O)N(C)C)ccc1-c1ccc(S(=O)(=O)N2CCC3(CC2)N=C(c2ccc(F)c(C(F)(F)F)c2)NC3=O)s1 [Compound 333, 4-{5-[2-(4-fluoro-3-trifluoromethyl-phenyl)-4-oxo-1,3,8-triaza-spiro[4.5]dec-1-ene-8-sulfonyl]-thiophen-2-yl}-3,N,N-trimethyl-benzamide] — higher, 87%
- Cc1ccc(C(=O)N(C)C)cc1-c1ccc(S(=O)(=O)N2CCC3(CC2)N=C(c2ccc(F)c(C(F)(F)F)c2)NC3=O)s1 [Compound 334, 3-{5-[2-(4-fluoro-3-trifluoromethyl-phenyl)-4-oxo-1,3,8-triaza-spiro[4.5]dec-1-ene-8-sulfonyl]-thiophen-2-yl}-4,N,N-trimethyl-benzamide] — lower, 34%
- Cc1cc(C(=O)N(C)C)ccc1-c1cccc(S(=O)(=O)N2CCC3(CC2)N=C(c2cccc(OC(F)(F)F)c2)NC3=O)c1 [Compound 335, 2-methyl-3′-[4-oxo-2-(3-trifluoromethoxy-phenyl)-1,3,8-triaza-spiro[4.5]dec-1-ene-8-sulfonyl]-biphenyl-4-carboxylic acid dimethylamide] — lower, 28%
- Cc1cc(C(=O)N(C)C)ccc1-c1ccc(S(=O)(=O)N2CCC3(CC2)N=C(c2cccc(OC(F)(F)F)c2)NC3=O)cc1 [Compound 336, 2-methyl-4′-[4-oxo-2-(3-trifluoromethoxy-phenyl)-1,3,8-triaza-spiro[4.5]dec-1-ene-8-sulfonyl]-biphenyl-4-carboxylic acid dimethylamide] — lower, 28%
- Cc1cc(C(=O)N(C)C)ccc1-c1cccc(S(=O)(=O)N2CCC3(CC2)N=C(c2cccc(OC(F)(F)F)c2)NC3=O)n1 [Compound 337, 3,N,N-trimethyl-4-{6-[4-oxo-2-(3-trifluoromethoxy-phenyl)-1,3,8-triaza-spiro[4.5]dec-1-ene-8-sulfonyl]-pyridin-2-yl}-benzamide] — lower, 17%
- Cc1noc(C)c1-c1ccccc1CCS(=O)(=O)N1CCC2(CC1)N=C(C1CCCCC1)NC2=O [Compound 338, 2-Cyclohexyl-8-{2-[2-(3,5-dimethyl-isoxazol-4-yl)-phenyl]-ethanesulfonyl}-1,3,8-triaza-spiro[4.5]dec-1-en-4-one] — lower, 60%
- COc1ccc(-c2ccccc2CCS(=O)(=O)N2CCC3(CC2)N=C(C2CCCCC2)NC3=O)cn1 [Compound 339, 2-cyclohexyl-8-{2-[2-(6-methoxy-pyridin-3-yl)-phenyl]-ethanesulfonyl}-1,3,8-triaza-spiro[4.5]dec-1-en-4-one] — higher, 66%
- Cn1cc(-c2ccccc2CCS(=O)(=O)N2CCC3(CC2)N=C(C2CCCCC2)NC3=O)cn1 [Compound 340, 2-cyclohexyl-8-{2-[2-(1-methyl-1H-pyrazol-4-yl)-phenyl]-ethanesulfonyl}-1,3,8-triaza-spiro[4.5]dec-1-en-4-one] — higher, 67%
- Cc1cc(OCCC(O)CO)ccc1-c1ccc(S(=O)(=O)N2CCC3(CC2)N=C(c2ccc(F)c(C(F)(F)F)c2)NC3=O)s1 (centres unmarked) [Compound 341, 8-{5-[4-(3,4-Dihydroxy-butoxy)-2-methyl-phenyl]-thiophene-2-sulfonyl}-2-(4-fluoro-3-trifluoromethyl-phenyl)-1,3,8-triaza-spiro[4.5]dec-1-en-4-one] — higher, 62%
- CC(=O)N(CCO)c1ccc(-c2ccc(S(=O)(=O)N3CCC4(CC3)N=C(c3ccc(F)c(C(F)(F)F)c3)NC4=O)s2)c(C)c1 [Compound 342, N-(4-{5-[2-(4-Fluoro-3-trifluoromethyl-phenyl)-4-oxo-1,3,8-triaza-spiro[4.5]dec-1-ene-8-sulfonyl]-thiophen-2-yl}-3-methyl-phenyl)-N-(2-hydroxy-ethyl)-acetamide] — higher, 93%
- O=C1NC(C2CCCCC2)=NC12CCN(S(=O)(=O)/C=C/c1nccs1)CC2 [Compound 343, 2-Cyclohexyl-8-((E)-2-thiazol-2-yl-ethenesulfonyl)-1,3,8-triaza-spiro[4.5]dec-1-en-4-one] — lower, 13%
- O=C1NC(C2CCCCC2)=NC12CCN(S(=O)(=O)/C=C/C1CCCC1)CC2 [Compound 344, 2-cyclohexyl-8-((E)-2-cyclopentyl-ethenesulfonyl)-1,3,8-triaza-spiro[4.5]dec-1-en-4-one] — lower, 35%
- O=C1NC(C2CCCCC2)=NC12CCN(S(=O)(=O)CCc1nccs1)CC2 [Compound 345, 2-Cyclohexyl-8-(2-thiazol-2-yl-ethanesulfonyl)-1,3,8-triaza-spiro[4.5]dec-1-en-4-one] — lower, 21%
- COc1ccc(CCCS(=O)(=O)N2CCC3(CC2)N=C(C2CCCCC2)NC3=O)cc1 [Compound 346, 2-Cyclohexyl-8-[3-(4-methoxy-phenyl)-propane-1-sulfonyl]-1,3,8-triaza-spiro[4.5]dec-1-en-4-one] — lower, 28%
- O=C(NCc1ccccc1)c1ccccc1S(=O)(=O)N1CCC2(CC1)N=C(C1CCCCC1)NC2=O [Compound 347, N-Benzyl-2-(2-cyclohexyl-4-oxo-1,3,8-triaza-spiro[4.5]dec-1-ene-8-sulfonyl)-benzamide] — lower, 23%

Reference: patent US9169254B2, “Spiroimidazolone derivative” (Chugai Seiyaku Kabushiki Kaisha, priority 2009, dated 2015)
